Test results published in ChEMBL document CHEMBL1144957, “Highly cytotoxic benzo[c]pyrido[2,3,4-kl]acridines” (Bioorg Med Chem Lett, 2003).

Key:
Nucleic Acid = experiment: Binding to DNA as change in thermal denaturation temperature of poly(dAT)2 DNA; type: nucleic-acid assay
Calf thymus DNA [1] = experiment: Apparent calf thymus DNA-binding constant; type: nucleic-acid assay; conditions: Bos taurus
PC-3 = experiment: In vitro inhibitory concentration against human prostate carcinoma PC-3 cell line using MTT assay after incubation for 72 h; type: functional, cell-based; conditions: PC-3, 72 h
Calf thymus DNA [2] = experiment: Apparent Calf thymus DNA DNA-binding constant; type: nucleic-acid assay; conditions: Bos taurus

| SMILES | ΔTm (Nucleic Acid) | K app (Calf thymus DNA [1]) | IC50 (PC-3) | K app (Calf thymus DNA [2]) |
| --- | --- | --- | --- | --- |
| COc1ccc2c(c1)-c1nc3cc(OC)c(OC)c4c3c(c1CC2)CCN4 | 0 °C | 2400 M⁻¹ | > 1000 nM |  |
| COc1cc2nc3c(c4c2c(c1OC)N(C(C)=O)CC4)CCc1cc(OCCCN)ccc1-3 | 3.1 °C | 6300 M⁻¹ | > 1000 nM |  |
| COc1cc2nc3c(c4c2c(c1OC)NCC4)CCc1cc(O)ccc1-3 | 1.1 °C | 1600 M⁻¹ | > 1000 nM |  |
| COc1cc2nc3c(c4c2c(c1OC)N(C(C)=O)CC4)CCc1cc(O)ccc1-3 |  |  | > 1000 nM |  |
| COc1cc2nc3c(c4c2c(c1OC)N(C(=O)CN1CCN(C)CC1)CC4)CCc1cc(OCCCN2CCN(C)CC2)ccc1-3 | 0.9 °C | 3.04e+06 M⁻¹ | > 1000 nM |  |
| COc1cc2nc3c(c4c2c(c1OC)NCC4)CCc1cc(OCCN)ccc1-3 | 12.1 °C | 2.01e+06 M⁻¹ | > 1000 nM |  |
| COc1cc2nc3c(c4c2c(c1OC)N(C(C)=O)CC4)CCc1ccccc1-3 |  |  | > 1000 nM |  |
| COc1cc2nc3c(c4c2c(c1OC)N(C(C)=O)CC4)CCc1cc(OCCN)ccc1-3 | 2.1 °C | 4200 M⁻¹ | > 1000 nM |  |
| COc1ccc2c(c1)CCc1c-2nc2cc(OC)c(OC)c3c2c1CCN3C(=O)CN1CCN(C)CC1 | 0.9 °C | < 50000 M⁻¹ | > 1000 nM |  |
| COc1cc2nc3c(c4c2c(c1OC)N(C(=O)CN1CCN(C)CC1)CC4)CCc1cc(OCCN)ccc1-3 | 11.9 °C | 4.51e+06 M⁻¹ | > 1000 nM |  |
| COc1cc2nc3c(c4c2c(c1OC)NCC4)CCc1ccccc1-3 | 0 °C | 3600 M⁻¹ | > 1000 nM |  |
| COc1ccc2c(c1)-c1nc3cc(OC)c(OC)c4c3c(c1CC2)CCN4C(C)=O |  |  | > 1000 nM |  |
| COc1cc2nc3c(c4c2c(c1OC)N(C(=O)CN1CCN(C)CC1)CC4)CCc1ccccc1-3 | 0 °C | < 50000 M⁻¹ | > 1000 nM |  |
| COc1ccc2c(c1)CCc1c-2nc2cc(OC)c(OC)c3c2c1CCN3C(C)=O |  |  | > 1000 nM |  |

Further lines, results first:

| ΔTm (Nucleic Acid) | K app (Calf thymus DNA [1]) | IC50 (PC-3) | K app (Calf thymus DNA [2]) | SMILES |
| --- | --- | --- | --- | --- |
| 11.9 °C | 6.86e+06 M⁻¹ | > 1000 nM |  | COc1cc2nc3c(c4c2c(c1OC)NCC4)CCc1cc(OCCCN)ccc1-3 |
| 0 °C | 3000 M⁻¹ | > 1000 nM |  | COc1ccc2c(c1)CCc1c-2nc2cc(OC)c(OC)c3c2c1CCN3 |
| 0.9 °C | < 50000 M⁻¹ | > 1000 nM |  | COc1ccc2c(c1)-c1nc3cc(OC)c(OC)c4c3c(c1CC2)CCN4C(=O)CN1CCN(C)CC1 |
| 0.9 °C |  | 11.2 nM | 2800 M⁻¹ | COc1cc2nc3c(c4c2c(c1OC)N(C(C)=O)CC4)CCc1cc(OCCCN2CCN(C)CC2)ccc1-3 |
| 7.5 °C | 4.98e+06 M⁻¹ | 19.9 nM |  | COc1cc2nc3c(c4c2c(c1OC)NCC4)CCc1cc(OCCCN2CCN(C)CC2)ccc1-3 |
| 11.9 °C | 6.66e+06 M⁻¹ | 5.1 nM |  | COc1cc2nc3c(c4c2c(c1OC)N(C(=O)CN1CCN(C)CC1)CC4)CCc1cc(OCCCN)ccc1-3 |
